Test results reported in ChEMBL document CHEMBL1141587, “Substituted oxazolidinones as novel NPC1L1 ligands for the inhibition of cholesterol absorption” (Bioorg Med Chem Lett, 2008).

Columns and labels:
[1] = target: NPC1-like intracellular cholesterol transporter 1 (Rattus norvegicus, UniProt Q6T3U3); assay: Displacement of [3H]ezetimibe-glucuronide from NPC1L1 in Sprague-Dawley rat brush border membrane
[2] = Metabolic stability assessed as half life in rat liver microsomes; assay type: ADME, Microsome
Hamster = assay: Inhibition of cholesterol absorption in chow fed hamster at 3 mg/kg, po; assay type: functional; conditions: Cricetinae
[3] = Half life in rat hepatocytes; assay type: ADME, cell-based, Liver, Hepatocyte

Sequence of NPC1-like intracellular cholesterol transporter 1 (Q6T3U3 21-1331 limits assumed): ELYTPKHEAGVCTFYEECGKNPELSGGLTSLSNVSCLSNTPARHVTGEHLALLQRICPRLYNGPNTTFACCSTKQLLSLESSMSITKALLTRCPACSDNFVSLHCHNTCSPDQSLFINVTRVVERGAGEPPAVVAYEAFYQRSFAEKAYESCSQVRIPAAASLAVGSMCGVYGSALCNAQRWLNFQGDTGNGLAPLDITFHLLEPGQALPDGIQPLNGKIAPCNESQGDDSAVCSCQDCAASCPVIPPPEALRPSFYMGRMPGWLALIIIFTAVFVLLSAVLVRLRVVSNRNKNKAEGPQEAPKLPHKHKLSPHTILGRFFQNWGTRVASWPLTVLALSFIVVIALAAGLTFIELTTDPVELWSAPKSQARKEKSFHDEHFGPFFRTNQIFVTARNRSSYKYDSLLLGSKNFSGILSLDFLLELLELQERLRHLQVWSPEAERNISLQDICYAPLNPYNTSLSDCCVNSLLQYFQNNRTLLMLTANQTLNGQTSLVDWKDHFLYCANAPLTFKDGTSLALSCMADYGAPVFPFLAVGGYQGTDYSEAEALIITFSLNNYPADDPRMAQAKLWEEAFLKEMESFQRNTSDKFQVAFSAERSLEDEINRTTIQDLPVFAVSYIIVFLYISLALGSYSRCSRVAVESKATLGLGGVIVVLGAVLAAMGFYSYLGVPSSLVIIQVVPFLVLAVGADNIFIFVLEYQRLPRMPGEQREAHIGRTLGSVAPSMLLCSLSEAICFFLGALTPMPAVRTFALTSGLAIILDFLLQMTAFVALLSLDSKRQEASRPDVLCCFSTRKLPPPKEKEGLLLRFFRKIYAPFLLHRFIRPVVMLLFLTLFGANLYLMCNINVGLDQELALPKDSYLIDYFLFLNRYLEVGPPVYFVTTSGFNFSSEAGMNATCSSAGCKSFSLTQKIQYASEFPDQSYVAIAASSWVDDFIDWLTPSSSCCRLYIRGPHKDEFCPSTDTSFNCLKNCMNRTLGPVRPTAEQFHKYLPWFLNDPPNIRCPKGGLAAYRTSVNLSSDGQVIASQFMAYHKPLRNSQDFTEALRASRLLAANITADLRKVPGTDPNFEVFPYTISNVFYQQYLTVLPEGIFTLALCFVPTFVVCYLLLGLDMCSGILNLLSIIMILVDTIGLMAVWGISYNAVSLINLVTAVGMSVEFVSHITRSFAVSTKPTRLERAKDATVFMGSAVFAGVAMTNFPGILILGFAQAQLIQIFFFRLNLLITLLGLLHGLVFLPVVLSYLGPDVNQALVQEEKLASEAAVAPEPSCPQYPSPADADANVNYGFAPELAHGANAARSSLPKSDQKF

SMILES	Ki [1] [µM]	other results
COc1cccc(OC[C@@H](O)[C@H]2OC(=O)N(c3cccc(F)c3)[C@@H]2c2ccc(OC)cc2O)c1	8.7	–
O=C(O)[C@H]1O[C@@H](Oc2ccc([C@@H]3[C@@H](CC[C@H](O)c4ccc(F)cc4)C(=O)N3c3ccc(F)cc3)cc2)[C@H](O)[C@@H](O)[C@@H]1O	0.18	half-life [2]: > 1 h
COc1cccc(OC[C@@H](O)[C@H]2OC(=O)N(c3ccc(F)cc3)[C@@H]2c2ccc(O)cc2)c1	15	–
COc1ccc(OC[C@@H](O)[C@H]2OC(=O)N(c3ccc(F)cc3)[C@@H]2c2ccc(O)cc2)cc1	> 50	–
CN(Cc1ccc(F)cc1)C(=O)[C@H]1OC(=O)N(c2ccc(F)cc2)[C@@H]1c1ccc(O)cc1	14	–
O=C1O[C@H]([C@H](O)CNc2ccc(F)cc2)[C@@H](c2ccc(O)cc2)N1c1ccc(F)cc1	19	–
COc1cccc(CN(C)C(=O)[C@H]2OC(=O)N(c3ccc(F)cc3)[C@@H]2c2ccc(O)cc2)c1	11	–
O=C1[C@H](CC[C@H](O)c2ccc(F)cc2)[C@@H](c2ccc(O)cc2)N1c1ccc(F)cc1 [EZETIMIBE]	0.2	half-life [3]: 0.717 h; half-life [2]: 0.158 h
COc1ccc([C@@H]2[C@@H](C(=O)N(C)Cc3ccc(F)cc3)OC(=O)N2c2cccc(F)c2)c(O)c1	1.4	inhibition in vivo at 3 mg/kg (Hamster): 0%
O=C(NC[C@H]1OC(=O)N(c2ccc(F)cc2)[C@@H]1c1ccc(O)cc1)c1ccc(F)cc1	> 50	–
O=C1O[C@H]([C@H](O)CCc2ccccc2)[C@@H](c2ccc(O)cc2)N1c1ccccc1F	> 50	–
O=C1O[C@H]([C@H](O)CCc2ccccc2)[C@@H](c2cccc(F)c2O)N1c1cccc(F)c1	> 50	inhibition in vivo at 3 mg/kg (Hamster): 0%
COc1ccc([C@@H]2[C@@H]([C@H](O)COc3ccc(F)cc3)OC(=O)N2c2cccc(F)c2)c(O)c1	28	inhibition in vivo at 3 mg/kg (Hamster): 0%
O=C(O)[C@H]1O[C@@H](Oc2ccc([C@@H]3[C@@H]([C@H](O)CCc4ccccc4)OC(=O)N3c3ccc(F)cc3)cc2)[C@H](O)[C@@H](O)[C@@H]1O	> 50	–
O=C1O[C@H](CC[C@H](O)c2ccc(F)cc2)[C@@H](c2ccc(O)cc2)N1c1ccc(F)cc1	9.9	–
COc1ccc([C@@H]2[C@@H](C(=O)N3CCc4ccccc4C3)OC(=O)N2c2cccc(F)c2)c(O)c1	3.6	–
O=C(NCc1ccc(F)cc1)[C@H]1OC(=O)N(c2ccc(F)cc2)[C@@H]1c1ccc(O)cc1	30	–
O=C1O[C@H]([C@H](O)COc2ccc(Cl)cc2)[C@@H](c2ccc(O)cc2)N1c1ccc(F)cc1	49	–
COc1ccc([C@@H]2[C@@H](CCCc3ccccc3)OC(=O)N2c2ccc(OC)cc2)cc1	> 50	–
O=C1O[C@H]([C@H](O)CCc2ccccc2)[C@@H](c2ccc(O)cc2)N1c1cccc(F)c1	11	half-life [3]: 1.18 h
O=C1O[C@H]([C@H](O)COc2ccc(F)cc2)[C@@H](c2ccc(O)cc2)N1c1ccc(F)cc1	28	half-life [3]: 1.12 h

Second part, led by results:

Ki [1] [µM]	SMILES	other results
> 50	COc1ccc([C@@H]2[C@@H]([C@H](O)CCc3ccccc3)OC(=O)N2c2ccc(F)cc2)c(OC)c1	–
> 50	COc1ccc(O)c([C@@H]2[C@@H]([C@H](O)CCc3ccccc3)OC(=O)N2c2cccc(F)c2)c1	–
16	Cc1ccc([C@@H]2[C@@H]([C@H](O)CCc3ccccc3)OC(=O)N2c2cccc(F)c2)c(O)c1	–
33	O=C1O[C@H]([C@H](O)CCc2ccccc2)[C@@H](c2cccc(O)c2)N1c1ccc(F)cc1	–
5.7	COc1cccc([C@@H]2[C@@H]([C@H](O)CCc3ccccc3)OC(=O)N2c2cccc(F)c2)c1O	–
2.3	COc1ccc([C@@H]2[C@@H]([C@H](O)CCc3ccccc3)OC(=O)N2c2cccc(F)c2)c(O)c1	–
18	O=C1O[C@H]([C@H](O)CCc2ccccc2)[C@@H](c2cc(F)ccc2O)N1c1cccc(F)c1	inhibition in vivo at 3 mg/kg (Hamster): 0%
4.8	COc1ccc([C@@H]2[C@@H]([C@H](O)CCc3ccccc3)OC(=O)N2c2ccc(F)cc2)c(O)c1	half-life [3]: 4.15 h
> 50	O=C1O[C@H]([C@H](O)CCc2ccccc2)[C@@H](c2ccc(O)cc2)N1c1ccc(F)cc1	–
12	O=C1O[C@H]([C@H](O)CCc2ccccc2)[C@@H](c2ccccc2O)N1c1ccc(F)cc1	inhibition in vivo at 3 mg/kg (Hamster): 0%
9.2	O=C1O[C@H]([C@H](O)CCc2ccccc2)[C@@H](c2ccc(O)cc2O)N1c1ccc(F)cc1	half-life [3]: 2.27 h
19	O=C1O[C@H]([C@H](O)CCc2ccccc2)[C@@H](c2ccc(F)cc2O)N1c1cccc(F)c1	inhibition in vivo at 3 mg/kg (Hamster): 0%
